Data on 16 compounds can be found in US12590118B2, “Salt and crystal form of steroid derivative regulator” (Shanghai Hansoh Biomedical Co., Ltd., priority 2019, dated 2026).

Each structure is given as a SMILES string.

This test concerns the target GABA-A receptor. The experiment in a line: 35S-TBPS binding assay (GABAA receptor binding ability assay). Details: species or system Sprague-Dawley rat. To be noted: rat cerebral cortex cell membrane, 5 μM GABA, 2 nM 35S-TBPS; read-out: IC50 on inhibiting the TBPS binding activity, 35S-TBPS bindng assay. The protocol:
1. The cerebral cortex of male Sprague-Dawley rat was isolated.
2. A pre-chilled 0.32 M sucrose solution (one tablet of protease inhibitor was added per 100 mL) was added to the cerebral cortex (the volume of sucrose solution was 10 times the volume of the cerebral cortex). The mixture was crushed with a 50 mL glass tissue homogenizer in batches and mixed well.
3. The mixture was centrifuged at 1,500 g, 4° C. for 10 minutes, and the supernatant was collected.
4. The mixture was centrifuged at 20,000 g, 4° C. for 30 minutes, and the supernatant was discarded.
5. The precipitate was resuspended with the pre-chilled phosphate buffer saline (PBS) (one tablet of protease inhibitor was added per 100 mL). An average of 4 mL of PBS was added per rat, and the mixture was mixed well with a glass tissue homogenizer.
6. The mixture was centrifuged at 10,000 g, 4° C. for 10 minutes, and the supernatant was discarded.
7. Steps 5 and 6 were repeated three times.
8. Finally, the precipitate was resuspended with 4 volumes of PBS. The resulting solution was dispensed, frozen in liquid nitrogen, and stored at −80° C.
9. The protein concentration was measured by the bicinchoninic acid (BCA) method.
1. 230 μL of PBS was added to each well of a well plate with 1.1 mL volume.
2. 60 μL of the cerebral cortex cell membrane (5 μg/μL) solution was added to each well, and the mixture was mixed well.
3. The test compound (3 μL per well) was added, and the plate was incubated at 25° C. for 5 minutes. The DMSO concentration was 1%. The initial compound concentration was […], and a
3-fold dilution in gradient was carried out to obtain a total of 8 gradients and 2 replicates. 1% DMSO was used as a negative control, and 10 μM P026-2 was used as a positive control.
4. GABA was added at a final concentration of 5 μM, and incubated at 25° C. for 5 minutes. 1 mM GABA solution was formulated, and 1.5 μL of the solution was added to each well.
5. 35S-TBPS was added at a final concentration of 2 nM. The concentration of isotope mother solution was 9.7 μM. After dilution with PBS for 100 times, 6 μL of the diluted isotope solution was added to each well.
6. The plate was incubated at 4° C. for 20 hours.
7. The FilterMate GF/C plate was pre-treated with 0.5% PEI, and incubated at 4° C. for 1 hour.
8. The FilterMate GF/C plate was washed with Universal Harvester twice, 50 mL PBS each time.
9. The reaction solution was transferred to the GF/C plate, and each well was washed 4 times with 900 μL of PBS.
10. The washed GF/C plate was placed at 55° C. and dried for 10 minutes.
11. 40 μL of scintillation solution was added to each well, and the CPM value was read with TopCount.
In the experiment, the CPM (counts per minute) value was read with TopCount. According to the readings of the High control (DMSO) and the Low control (10 μM of the positive compound) experimental groups, the % inhibition was calculated based on the following formula: % Inhibition=100×(CPMHigh control−CPMsample)/(CPMHigh control−CPMLow control)
The IC50 of the compound was calculated according to the following 4-parameter nonlinear logic formula: Y=Bottom+(Top−Bottom)/(1+10^((Log IC50−X)*HillSlope)),
wherein: • X represents the log of compound concentration, • Y represents the % Inhibition.
The effect of the compound of the present invention on the TBPS binding activity was determined by the above test, and the measured IC50 values are shown in Table 5.

`C[C@@]1(O)CC[C@H]2[C@H](CC[C@@H]3[C@@H]2CC[C@@]2(C)[C@H]3[C@@H]3C[C@@H]3[C@@H]2C(=O)Cn2ccc(C(F)(F)F)n2)C1` [Example 4, 1-((2R,4aS,4bR,6aS,7S,7aS,8aR,8bR,8cR,10aR)-2-Hydroxy-2,6a-dimethyloctadecahydrocyclopropa[4,5]cyclopenta[1,2-a]phenanthren-7-yl)-2-(3-(trifluoromethyl)-1H-pyrazol-1-yl)ethan-1-one]: the IC50 (usually the concentration that gives 50% inhibition) stood at 3.1 nM.

For `C[C@@]1(O)CC[C@H]2[C@H](CC[C@@H]3[C@@H]2CC[C@@]2(C)[C@H]3[C@@H]3C[C@@H]3[C@@H]2C(=O)Cn2nccn2)C1` [Example 5, 1-((2R,4aS,4bR,6aS,7S,7aS,8aR,8bR,8cR,10aR)-2-Hydroxy-2,6a-dimethyloctadecahydrocyclopropa[4,5]cyclopenta[1,2-a]phenanthren-7-yl)-2-(2H-1,2,3-triazol-2-yl)ethan-1-one], the IC50 came out at 14.7 nM.

Take `C[C@@]1(O)CC[C@H]2[C@H](CC[C@@H]3[C@@H]2CC[C@@]2(C)[C@H]3[C@@H]3C[C@@H]3[C@@H]2C(=O)Cn2ncnn2)C1` [Example 7, 1-((2R,4aS,4bR,6aS,7S,7aS,8aR,8bR,8cR,10aR)-2-Hydroxy-2,6a-dimethyloctadecahydrocyclopropa[4,5]cyclopenta[1,2-a]phenanthren-7-yl)-2-(2H-tetrazol-2-yl)ethan-1-one]: the half-maximal inhibitory concentration (IC50) came out at 21.3 nM.

Turning to `C[C@@]1(O)CC[C@H]2[C@H](CC[C@@H]3[C@@H]2CC[C@@]2(C)[C@H]3[C@@H]3C[C@@H]3[C@@H]2C(=O)Cn2cc(Cl)cn2)C1` [Example 14, 2-(4-Chloro-1H-pyrazol-1-yl)-1-((2R,4aS,4bR,6aS,7S,7aS,8aR,8bR,8cR,10aR)-2-hydroxy-2,6a-dimethyloctadecahydrocyclopropa[4,5]cyclopenta[1,2-a]phenanthren-7-yl)ethan-1-one], the concentration for half-maximal inhibition (IC50) was determined as 6.4 nM.

Regarding `C[C@@]1(O)CC[C@H]2[C@H](CC[C@@H]3[C@@H]2CC[C@@]2(C)[C@H]3[C@@H]3C[C@@H]3[C@@H]2C(=O)Cn2cc(C#N)c(C3CC3)n2)C1` [Example 24, 3-Cyclopropyl-1-(2-((2R,4aS,4bR,6aS,7S,7aS,8aR,8bR,8cR,10aR)-2-hydroxy-2,6a-dimethyloctadecahydrocyclopropa[4,5]cyclopenta[1,2-a]phenanthren-7-yl)-2-oxoethyl)-1H-pyrazole-4-carbonitrile], the IC50 stood at 18.3 nM.

`C[C@@]1(O)CC[C@H]2[C@H](CC[C@@H]3[C@@H]2CC[C@@]2(C)[C@H]3[C@@H]3C[C@@H]3[C@@H]2C(=O)Cn2ncc(C#N)c2C2CC2)C1` [Example 25, 5-Cyclopropyl-1-(2-((2R,4aS,4bR,6aS,7S,7aS,8aR,8bR,8cR,10aR)-2-hydroxy-2,6a-dimethyloctadecahydrocyclopropa[4,5]cyclopenta[1,2-a]phenanthren-7-yl)-2-oxoethyl)-1H-pyrazole-4-carbonitrile]: the concentration for half-maximal inhibition (IC50) worked out at 28.1 nM.

As to `Cc1nn(CC(=O)[C@H]2[C@H]3C[C@H]3[C@H]3[C@@H]4CC[C@@H]5C[C@](C)(O)CC[C@@H]5[C@H]4CC[C@@]32C)cc1C#N` [Example 28, 1-(2-((2R,4aS,4bR,6aS,7S,7aS,8aR,8bR,8cR,10aR)-2-Hydroxy-2,6a-dimethyloctadecahydrocyclopropa[4,5]cyclopenta[1,2-a]phenanthren-7-yl)-2-oxoethyl)-3-methyl-1H-pyrazole-4-carbonitrile], the 50% inhibitory concentration (IC50) stood at 15.4 nM.

Consider `Cc1c(C#N)cnn1CC(=O)[C@H]1[C@H]2C[C@H]2[C@H]2[C@@H]3CC[C@@H]4C[C@](C)(O)CC[C@@H]4[C@H]3CC[C@@]21C` [Example 29, 1-(2-((2R,4aS,4bR,6aS,7S,7aS,8aR,8bR,8cR,10aR)-2-Hydroxy-2,6a-dimethyloctadecahydrocyclopropa[4,5]cyclopenta[1,2-a]phenanthren-7-yl)-2-oxoethyl)-5-methyl-1H-pyrazole-4-carbonitrile], for which the 50% inhibitory concentration (IC50) turned out to be 15.4 nM.

On to `C[C@@]1(O)CC[C@H]2[C@H](CC[C@@H]3[C@@H]2CC[C@@]2(C)[C@H]3[C@@H]3C[C@@H]3[C@@H]2C(=O)Cn2cc(F)cn2)C1` [Example 30, 2-(4-Fluoro-1H-pyrazol-1-yl)-1-((2R,4aS,4bR,6aS,7S,7aS,8aR,8bR,8cR,10aR)-2-hydroxy-2,6a-dimethyloctadecahydrocyclopropa[4,5]cyclopenta[1,2-a]phenanthren-7-yl)ethan-1-one], for which the IC50 stood at 28.7 nM.

On to `CCOC(=O)c1cnn(CC(=O)[C@H]2[C@H]3C[C@H]3[C@H]3[C@@H]4CC[C@@H]5C[C@](C)(O)CC[C@@H]5[C@H]4CC[C@@]32C)c1` [Example 35, Ethyl 1-(2-((2R,4aS,4bR,6aS,7S,7aS,8aR,8bR,8cR,10aR)-2-hydroxy-2,6a-dimethyloctadecahydrocyclopropa[4,5]cyclopenta[1,2-a]phenanthren-7-yl)-2-oxoethyl)-1H-pyrazole-4-carboxylate], for which the IC50 stood at 5 nM.

Take `C[C@@H]1C[C@H](C(=O)Cn2cc(C(F)(F)F)cn2)[C@@]2(C)CC[C@H]3[C@@H](CC[C@@H]4C[C@](C)(O)CC[C@@H]43)[C@H]12` [Example 39, 1-((3R,5R,8R,9R,10S,13S,14S,15R,17S)-3-Hydroxy-3,13,15-trimethylhexadecahydro-1H-cyclopenta[a]phenanthren-17-yl)-2-(4-(trifluoromethyl)-11H-pyrazol-1-yl)ethan-1-one]: the half-maximal inhibitory concentration (IC50) was 6.2 nM.

For the compound `C[C@@H]1C[C@H](C(=O)Cn2ccnn2)[C@@]2(C)CC[C@H]3[C@@H](CC[C@@H]4C[C@](C)(O)CC[C@@H]43)[C@H]12` [Example 42, 1-((3R,5R,8R,9R,10S,13S,14S,15R,17S)-3-Hydroxy-3,13,15-trimethylhexadecahydro-1H-cyclopenta[a]phenanthren-17-yl)-2-(1H-1,2,3-triazol-1-yl)ethan-1-one], the IC50 was found to be 24.6 nM.

`Cc1nnn(CC(=O)[C@H]2C[C@@H](C)[C@H]3[C@@H]4CC[C@@H]5C[C@](C)(O)CC[C@@H]5[C@H]4CC[C@@]32C)n1` [Example 43, 1-((3R,5R,8R,9R,10S,13S,14S,15R,17S)-3-Hydroxy-3,13,15-trimethylhexadecahydro-1H-cyclopenta[a]phenanthren-17-yl)-2-(5-methyl-2H-tetrazol-2-yl)ethan-1-one]: the 50% inhibitory concentration (IC50) turned out to be 5.4 nM.

Turning to `C[C@@H]1C[C@H](C(=O)Cn2ncnn2)[C@@]2(C)CC[C@H]3[C@@H](CC[C@@H]4C[C@](C)(O)CC[C@@H]43)[C@H]12` [Example 44, 1-((3R,5R,8R,9R,10S,13S,14S,15R,17S)-3-Hydroxy-3,13,15-trimethylhexadecahydro-1H-cyclopenta[a]phenanthren-17-yl)-2-(2H-tetrazol-2-yl)ethan-1-one], the IC50 stood at 6.1 nM.

Turning to `C[C@@H]1C[C@H](C(=O)Cn2cc(C#N)c(C3CC3)n2)[C@@]2(C)CC[C@H]3[C@@H](CC[C@@H]4C[C@](C)(O)CC[C@@H]43)[C@H]12` [Example 47, 3-Cyclopropyl-1-(2-((3R,5R,8R,9R,10S,13S,14S,15R,17S)-3-hydroxy-3,13,15-trimethylhexadecahydro-1H-cyclopenta[a]phenanthren-17-yl)-2-oxoethyl)-1H-pyrazole-4-carbonitrile], the IC50 came to 7.6 nM.

On to `C[C@@H]1C[C@H](C(=O)Cn2cc(Cl)cn2)[C@@]2(C)CC[C@H]3[C@@H](CC[C@@H]4C[C@](C)(O)CC[C@@H]43)[C@H]12` [Example 68, 2-(4-Chloro-1H-pyrazol-1-yl)-1-((3R,5R,8R,9R,10S,13S,14S,15R,17S)-3-hydroxy-3,13,15-trimethylhexadecahydro-1H-cyclopenta[a]phenanthren-17-yl)ethan-1-one], for which the IC50 was 9.6 nM.
